Experimental data: patent publication US7615361B2, “Toxicity screening methods” (Ceetox, Inc., priority 2006, dated 2009)

What was measured:
[1] = test system: H4IIE tumor cells, NRK cells, rat primary hepatocytes; experiment: Anti-tumor screen in three rat cell types; format: cell-based
Source text: In the Anti-tumor screen of the present invention, at least three different cell types are utilized: (1) tumor derived cells, (2) proliferating cells from normal tissue, and (3) non-proliferating cells from normal tissue. The evaluation of anti-tumor agents in multiple cell types provides information on mechanism-based toxicity versus efficacy.
The anti-tumor agent can be evaluated in a toxicity screen of key biochemical functions (as described in detail herein above), with emphasis placed on cell proliferation assays as well as biochemical function and cell viability. Comparisons can then be made to quantitative markers in the concentration response curves constructed with the toxicity data.
It is hypothesized to act through mitochondrial toxicity as well as apoptosis.

[2] = test system: reactive oxygen species (ROS); experiment: DCFDA fluorescence; format: cell-based, rat; conditions: 5 μM
Protocol: The production of reactive oxygen species (ROS) can be measured using 2′-7′dichloro-dihydrofluorescein diacetate (DCFDA).
Dihydro-2′,7′-dichloroflorescin-diacetate (DCFDA) for Monitoring Peroxide Formation: DCFDA (Sigma C-6827) was dissolved in DMSO at a concentration of 205 mM. The stock was diluted to 50 μM in phosphate buffered saline. Cells were preloaded with DCFDA for 1 hour prior to dosing with test compounds. Positive control wells were dosed with freshly prepared 300 μM t-Butyl hydroperoxide (tBHP). After compound exposure, the plates were washed with phosphate buffered saline and read at 485/530 in a Packard Fusion plate reader.
Dihydro-2′,7′-dichloroflorescin-diacetate (DCFDA) for Monitoring Peroxide Formation: Plates were read at 485/530 in a Packard Fusion plate reader or equivalent.

SK-MEL28 cells [3] = experiment: BrdU incorporation; format: cell-based, human; conditions: SK-MEL28, 24 hr exposure to 5 and 10 μM
Protocol: Bromodexoyurine (BrDU) Incorporation: This assay was used to monitor cumulative changes in DNA replication. The assay uses the thymidine analog BrdU to measure S-phase of cell replication and is considered to be the Gold Standard for cell proliferation. BrDU (10 μM) was included in the test compound dosing solution to allow BrDU incorporation during cell replication. BrDU was included for the duration of the exposure, 24 hr. After completion of exposure period, the cells were fixed and labeled with mouse monoclonal anti-BrDU (FITC). Fluorescence was measured using a Packard Fusion or equivalent plate reader at 485 nm excitation and 530 nm emission.
Bromodexoyurine (BrDU) Incorporation: After incubation, the test compound/BrDU solution was removed and cells were fixed. A solution containing mouse monoclonal anti-BrDU (FITC) was added and fluorescence was measured. Data were collected as relative fluorescent units (RFU). The blank was subtracted from the final well RFU. It represents the average of the first and last columns which contain no cells on that particular plate. The controls are untreated cells allowed to grow on the same plate. The compounds are represented by several separate RFU data points for each of the tested concentrations. The percent change relative to controls was calculated by dividing the average RFU by the control cell RFU and multiplying by 100.
Experiments were also conducted to verify the relationship between exposure time and the observed cytostatic effects of the test compound. An additional assay was used to monitor cumulative change in DNA replication. The assay uses the thymidine analog BrdU to measure S-phase of cell replication and is considered to be the Gold Standard for cell proliferation. […] The BrdU assay paralleled the MTT and propidium iodide assays. The apparent lower sensitivity of the BrdU assay is a reflection of the experimental design not the assay. BrdU data represents a cumulative effect from the beginning of exposure while the other assays are measuring one is remaining at the end of either the 24 hr or 72 hr exposure period. […] There was a trend toward increasing activity in caspase-3, a marker for cell apoptosis.

SK-MEL28 cells [4] = experiment: Caspase 3 activity (apoptosis); format: cell-based, human
Protocol: (§1) Caspase 3 Procedure: Caspase 3 activity was determined using a caspase substrate (DEVD, Asp-Glu-Val-Asp) labeled with a fluorescent molecule, 7-Amino4-methylcoumarin (AMC). Caspase 3 cleaves the tetrapeptide between D and AMC, thus releasing the fluorogenic […] AMC. Following the test article exposure to cells in 96-well plates, medium was aspirated from plates and PBS added to each well. Plates were stored at −80° C. to lyse cells and store samples until further analysis. On the day of analysis, plates were removed from freezer and thawed. Caspase buffer with fluorescent substrate was added to each well and incubated at room temperature for 1 hr. AMC release was measured in a spectrofluorometer at an excitation wavelength of 360 nm and an emission wavelength of 460 nm. Values are expressed as relative fluorescent units (RFU).
(§2) Caspase Activity: After sample plates were completely thawed, the caspase substrate buffer mix was added to each plate. Plates were incubated at room temperature for 1hr, shielded from light. Plates were read using a in a spectrofluorometer at an excitation wavelength of 360 nm and an emission wavelength of 460 nm. Values were expressed as relative fluorescent units (RFU).
(§3) The key to the maximal response data can be found below Table 2.
(§4) Dosing solutions were prepared in complete culture medium.

C32 cells = experiment: Caspase 3 activity (apoptosis); format: cell-based, human; conditions: C32, 24 HR
Protocol: as §1, §2, §3, §4

HUVEC = experiment: Caspase 3 activity (apoptosis); format: cell-based, human; conditions: 24 HR
Protocol: as §1, §2, §3, §4

NHEM cells = experiment: Caspase 3 activity (apoptosis); format: cell-based, human; conditions: 24 HR
Protocol: as §1, §2, §3, §4

Row | SMILES | sensitivity of cell types in the anti-tumor screen [1] | increase in DCFDA (ROS related) fluorescence [2] [fold] | Cell proliferation as measured by the S-phase marker BrdU (SK-MEL28 cells [3]) | Caspase 3 Activity (Index/Dose): Index (SK-MEL28 cells [4]; SK-MEL28, 24 HR) | Caspase 3 Activity (Index/Dose): Index (SK-MEL28 cells [4]; SK-MEL28, 24 HR, COMP A (LOW) / controls #2) | Caspase 3 Activity (Index/Dose): Dose (SK-MEL28 cells [4]; SK-MEL28, 24 HR, run #2, controls (μM section)) | Caspase 3 Activity (Index/Dose): Dose (SK-MEL28 cells [4]; SK-MEL28, 24 HR, controls (μM section of table)) | Caspase 3 Activity (Index/Dose): Index (SK-MEL28 cells [4]; SK-MEL28, 72 HR, COMP A (LOW) / controls #2) | Caspase 3 Activity (Index/Dose): Dose (SK-MEL28 cells [4]; SK-MEL28, 72 HR, run #2, controls (μM section)) | Caspase 3 Activity (Index/Dose): Index (C32 cells) | Caspase 3 Activity (Index/Dose): Dose (C32 cells; controls (μM section)) | Caspase 3 Activity (Index/Dose): Index (HUVEC) | Caspase 3 Activity (Index/Dose): Dose (HUVEC; controls (μM section)) | Caspase 3 Activity (Index/Dose): Index (NHEM cells) | Caspase 3 Activity (Index/Dose): Dose (NHEM cells; controls (μM section))
1 | COc1cccc2c1C(=O)c1c(O)c3c(c(O)c1C2=O)C[C@@](O)(C(=O)CO)C[C@@H]3O[C@H]1C[C@H](N)[C@H](O)[C@H](C)O1 [ADRIAMYCIN, Adriamycin] | toxic to all of the cells tested | 4 |  |  |  |  |  |  |  |  |  |  |  |  | 
2 | CC[C@@]1(O)C(=O)OCc2c1cc1n(c2=O)Cc2cc3ccccc3nc2-1 [CAMPTOTHECIN, Camptothecin] |  |  | undetectable | 3 (400-600 = 3) | 3 (400-600 = 3) | 100 | 300 | 3 (400-600 = 3) | 100 | 4 (600-800 = 4) | 300 | 1 (0-200 = 1) | 300 | 3 (400-600 = 3) | 300
